For orientation: IC50 means the midpoint of a concentration-inhibition curve.

For the assay, the target named is T1, Chronophin (Mus musculus, UniProt P60487).
T1 sequence (P60487 whole entry): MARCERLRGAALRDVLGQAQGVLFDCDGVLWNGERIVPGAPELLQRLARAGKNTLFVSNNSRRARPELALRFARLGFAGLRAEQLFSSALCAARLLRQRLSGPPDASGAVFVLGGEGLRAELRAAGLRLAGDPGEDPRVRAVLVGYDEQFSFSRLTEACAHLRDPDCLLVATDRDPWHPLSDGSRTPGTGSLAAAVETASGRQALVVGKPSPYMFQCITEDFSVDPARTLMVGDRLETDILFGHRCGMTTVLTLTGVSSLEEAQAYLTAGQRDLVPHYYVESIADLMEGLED
The experiment in a line: Inhibition of recombinant mouse brain PDXP expressed in Escherichia coli BL21 (DE3) cells assessed as pyridoxal 5' phosphate dephosphorylation preincubated for 4 mins followed by substrate addition measured after 5 mins.
For `Cc1ncc(/C=C/P(=O)(O)O)c(C=O)c1O`, the IC50 stood at 246 µM.

`Cc1ncc(CCP(=O)(O)O)c(C=O)c1O`: the IC50 is 79 µM.

Consider `Cc1ncc(CCP(=O)(O)O)c(CO)c1O`, for which the IC50 was found to be 1300 µM.

For the compound `Cc1ncc(/C=C/P(=O)(O)O)c(CO)c1O`, the IC50 came to 1300 µM.

Values taken from ChEMBL document CHEMBL3425448, “Synthesis of hydrolysis-resistant pyridoxal 5'-phosphate analogs and their biochemical and X-ray crystallographic characterization with the pyridoxal phosphatase chronophin” (Bioorg Med Chem, 2015).
